Test results taken from patent US7294633B2, “Oxazolo-and furopyrimidines and their use in medicaments against tumors” (Novartis AG, priority 2001, dated 2007).

melting point: 64 to 84 °C
SMILES: C[C@@H](Nc1ncnc2oc(-c3cccc(N)c3)cc12)c1ccccc1 [Example 13, 4-(1R-phenylethylamino)-6-(3-aminophenyl)furo[2,3-d]pyrimidine]
